Marks after values point to notes of the source that are not given here.
How the values were obtained:
[1] = system: Botrytis cinerea; assay: Test A: tomato Botrytis, preventive spray on tomato seedlings, visual disease rating; conditions: for Test A rating (% disease control): preventive spray, 0 = no control relative to controls, rating without asterisk
[2] = system: Septoria nodorum; assay: Test E: Septoria glume blotch, preventive spray on wheat seedlings, visual disease rating; conditions: for Test E rating (% disease control): Septoria glume blotch on wheat, preventive spray, rating without asterisk
Protocol: General protocol for preparing test suspensions for Tests A-I: the test compounds were first dissolved in acetone in an amount equal to 3% of the final volume and then suspended at the desired concentration (in ppm) in acetone and purified water (50/50 mix by volume) containing 250 ppm of the surfactant Trem® 014 (polyhydric alcohol esters). The resulting test suspensions were then used in Tests A-I. Each test was conducted in triplicate, and the results were averaged. Spraying a 200 ppm test suspension to the point of run-off on the test plants was the equivalent of a rate of about 800 g/ha. Unless otherwise indicated, the rating values indicate a 200 ppm test suspension was used. (An asterisk “*” next to the rating value indicates a 40 ppm test suspension was used.)
The test suspension was sprayed to the point of run-off on wheat seedlings. The following day the seedlings were inoculated with a spore suspension of Septoria nodorum (the causal agent of Septoria glume blotch) and incubated in a saturated atmosphere at 24° C. for 48 h, and then moved to a growth chamber at 20° C. for 9 days, after which time visual disease ratings were made.

[3] = system: Septoria tritici; assay: Test F: wheat leaf blotch, preventive spray on wheat seedlings, visual disease rating; type: in vivo; design: Test F rating (disease control), value marked *: concentration or dose not given beside the values; conditions: for Test F rating (% disease control): preventive spray, rating without asterisk
Source text: (§1) A hyphen (-) indicates no test results.

[4] = system: Blumeria graminis f. sp. tritici; assay: Test I: wheat powdery mildew, preventive spray on wheat seedlings, visual disease rating; conditions: for Test I rating (% disease control): preventive spray, rating without asterisk
[5] = system: Puccinia recondita f. sp. tritici; assay: Test H: wheat leaf rust, preventive spray on wheat seedlings, visual disease rating; conditions: for Test H rating (disease control): sprayed the day before inoculation; for Test H rating (% disease control): preventive spray, rating without asterisk
[6] = system: Alternaria solani; assay: Test B: tomato early blight, preventive spray on tomato seedlings, visual disease rating; conditions: for Test B rating (disease control) / Test B rating (% disease control): 100 = 100% disease control; for Test B rating (disease control): 0 = no disease control relative to the controls; for Test B rating (% disease control): preventive spray, rating without asterisk
[7] = system: Puccinia recondita f. sp. tritici; assay: Test G: wheat leaf rust, spray after inoculation (curative) on wheat seedlings, visual disease rating; type: in vivo; conditions: for Test G rating (% disease control): spray after inoculation, rating without asterisk
Source text: as §1

[8] = sprayed after inoculation, 100 = 100% disease control, 0 = no disease control
[9] = tomato Botrytis, 100 = 100% disease control, 0 = no disease control relative to the controls
[10] = Septoria glume blotch, 100 = 100% disease control, 0 = no disease control relative to the controls
[11] = 100 = 100% disease control, 0 = no disease control relative to the controls
[12] = wheat powdery mildew, 100 = 100% disease control, 0 = no disease control relative to the controls
[13] = wheat leaf rust, 100 = 100% disease control, 0 = no disease control
[14] = tomato Botrytis, 100 = 100% disease control
[15] = wheat powdery mildew, 100 = 100% disease control
[16] = wheat leaf rust, 100 = 100% disease control

Row | SMILES | Test A rating (disease control) [1, 9] | Test E rating (disease control) [2, 10] | Test F rating (disease control) [3, 11] | Test I rating (disease control) [4, 12] | Test H rating (disease control) [5, 13] | Test B rating (disease control) ([6]; tomato early blight) | Test G rating (disease control) [7, 8] | Test A rating (% disease control) [1, 14] | Test E rating (% disease control) ([2]; 100 = 100% disease control) | Test F rating (% disease control) ([3]; 100 = 100% disease control) | Test I rating (% disease control) [4, 15] | Test H rating (% disease control) [5, 16] | Test B rating (% disease control) ([6]; tomato early blight) | Test G rating (% disease control) ([7]; 100 = 100% disease control) | other results
1 | Cc1nn(C)c(Oc2ccc(C#N)cc2F)c1-c1ccc(F)cc1F [compound 159] | – | – | – | – | – | – | – | – | – | – | – | – | – | – | Test A rating (disease control), value marked * ([1]; tomato Botrytis, rating marked with asterisk (*), other test condition, not explained in the text shown): 100* %; Test E rating (disease control), value marked * ([2]; Septoria glume blotch, rating marked with asterisk (*), other test condition, not explained in the text shown): 86* %; Test F rating (disease control), value marked * ([3]; rating marked with asterisk (*), other test condition, not explained in the text shown): 100* %; Test I rating (disease control), value marked * ([4]; wheat powdery mildew, rating marked with asterisk (*), not explained in the text shown): 96* %; Test H rating (disease control), value marked * ([5]; wheat leaf rust, preventive, rating marked with asterisk (*), not explained in the text shown): 98* %; Test B rating (disease control), value marked * ([6]; tomato early blight, rating marked with asterisk (*), other test condition, not explained in the text shown): 97* %; Test G rating (disease control), value marked * ([7]; sprayed after inoculation, rating marked with asterisk (*), not explained in the text shown): 0* %
2 | Cc1nn(C)c(Nc2ccc(F)cc2Br)c1-c1ccc(F)cc1Cl [Compound 73, N-(2-bromo-4-fluorophenyl)-4-(2-chloro-4-fluorophenyl)-1,3-dimethyl-1H-pyrazol-5-amine] | – | – | – | – | – | – | – | – | – | – | – | – | – | – | pest or weed control at 200 µg/mL ([1]; Botrytis cinerea, in Solanum lycopersicum, read-out: Test A rating (disease control), tomato Botrytis, 100 = 100% disease control, 0 = no disease control relative to the controls): 100%; pest or weed control at 200 µg/mL ([2]; Parastagonospora nodorum, in Triticum aestivum, read-out: Test E rating (disease control), Septoria glume blotch, 100 = 100% disease control, 0 = no disease control relative to the controls): 78%; pest or weed control at 200 µg/mL ([3]; Zymoseptoria tritici, 100 = 100% disease control, 0 = no disease control relative to the controls): 100%; pest or weed control at 200 µg/mL ([4]; Blumeria graminis, in Triticum aestivum, read-out: Test I rating (disease control), wheat powdery mildew, 100 = 100% disease control, 0 = no disease control relative to the controls): 100%; pest or weed control at 200 µg/mL ([5]; read-out: Test H rating (disease control), wheat leaf rust, sprayed the day before inoculation, 100 = 100% disease control, 0 = no disease control): 100%; pest or weed control at 200 µg/mL ([6]; Alternaria solani, in Solanum lycopersicum, read-out: Test B rating (disease control)): 99%; pest or weed control at 200 µg/mL [7, 8]: 90%
3 | Cc1nn(C)c(Nc2c(F)cc(C#N)cc2F)c1-c1c(F)cccc1F [compound 90] | 99% | 87% | 100% | 99% | 98% | 87% | 0% | – | – | – | – | – | – | – | –
4 | Cc1nn(C)c(Nc2c(F)cc(I)cc2F)c1-c1ccc(F)cc1F [compound 216] | – | – | – | – | – | – | – | 100% | 60% | 100% | 99% | 95% | 0% | 18% | –
5 | Cc1nn(C)c(Nc2c(Cl)cc(Cl)cc2I)c1-c1ccc(F)cc1Cl [compound 197] | – | – | – | – | – | – | – | 100% | 0% | 100% | 94% | 97% | 77% | 9% | –
6 | Cc1nn(C)c(Nc2c(F)cc(F)cc2Br)c1-c1ccc(Cl)cc1F [compound 229] | – | – | – | – | – | – | – | 99% | 64% | 100% | 98% | 97% | 99% | 9% | –
7 | Cc1nn(C)c(Nc2ccc(Br)cc2Cl)c1-c1ccc(F)cc1Cl [compound 172] | 100% | 60% | 100% | 100% | 100% | 73% | 0% | – | – | – | – | – | – | – | –
8 | Cc1nn(C)c(Oc2ccc(C#N)cc2Cl)c1-c1ccc(Cl)cc1Cl [compound 131] | 100% | 0% | 100% | 96% | 96% | 0% | 0% | – | – | – | – | – | – | – | –
9 | COc1ccc(-c2c(C)nn(C)c2Nc2c(F)cc(F)cc2Br)c(Cl)c1 [compound 221] | – | – | – | – | – | – | – | 100% | 97% | 100% | 100% | 99% | 100% | 73% | –
10 | Cc1nn(C)c(Nc2c(F)cc(C#N)cc2F)c1-c1ccc(F)cc1F [compound 83] | 100% | 87% | 100% | 100% | 100% | 99% | 0% | – | – | – | – | – | – | – | –
11 | COc1ccc(Nc2c(-c3ccc(F)cc3F)c(C)nn2C)c(F)c1 [compound 63] | 99% | 0% | 99% | 99% | 80% | 99% | 0% | – | – | – | – | – | – | – | –
12 | Cc1nn(C)c(Nc2c(F)cc(Br)cc2Br)c1-c1ccc(F)cc1I [compound 223] | – | – | – | – | – | – | – | 98% | 0% | 100% | 99% | 97% | 88% | 0% | –
13 | Cc1nn(C)c(Nc2c(F)cc(Br)cc2Br)c1-c1ccc(F)cc1Cl [compound 212] | – | – | – | – | – | – | – | 98% | 100% | 100% | 100% | 100% | 100% | 97% | –
14 | Cc1nn(C)c(Nc2ccc(Br)cc2Cl)c1-c1ccc(F)cc1F [compound 167] | 100% | 0% | 100% | 98% | 92% | 0% | 6% | – | – | – | – | – | – | – | –
15 | COc1ccc(-c2c(C)nn(C)c2Nc2c(F)cc(I)cc2F)c(Cl)c1 [compound 220] | – | – | – | – | – | – | – | 100% | 73% | 100% | 96% | 97% | 69% | 0% | –
16 | Cc1nn(C)c(Nc2ccc(Br)cc2Br)c1-c1ccc(F)cc1Cl [compound 183] | – | – | – | – | – | – | – | 100% | 0% | 100% | 98% | 96% | 0% | 54% | –
17 | COc1ccc(-c2c(C)nn(C)c2Nc2c(F)cccc2F)c(Cl)c1 [compound 43] | 98% | 0% | 100% | 98% | 100% | 100% | 95% | – | – | – | – | – | – | – | –
